Data from ChEMBL document CHEMBL4196088, “Induction of cell killing and autophagy by amphiphilic pyrrolidine derivatives on human pancreatic cancer cells” (Eur J Med Chem, 2018).
Active and inactive are the calls of the source. No cut-off for these calls is given here.

How the values were obtained:
[1] = system: PANC-1; assay: Induction of apoptosis in human PANC1 cells assessed as accumulation at sub-G0/G1 phase at 20 uM after 24 hrs by propidium iodide staining based flow cytometry (reference value: 0.6 to 0.7%); type: functional
[2] = system: PANC-1; assay: Induction of apoptosis in human PANC1 cells assessed as accumulation at sub-G0/G1 phase at 10 uM after 72 hrs by propidium iodide staining based flow cytometry (reference value: 1.6 to 3.2%); type: functional
[3] = system: BXPC-3; assay: Growth inhibition of human BxPC3 cells after 72 hrs by XTT assay; type: functional, cell-based; settings: BXPC-3, 72 h
[4] = system: Fibroblast; assay: Induction of apoptosis in human primary fibroblasts at 5 to 40 uM after 24 to 72 hrs by Annexin V/7-AAD staining based flow cytometry; type: cell-based
[5] = system: PANC-1; assay: Induction of apoptosis in human PANC1 cells assessed as accumulation at sub-G0/G1 phase at 10 uM after 24 hrs by propidium iodide staining based flow cytometry (reference value: 0.6 to 0.7%); type: functional
[6] = system: PANC-1; assay: Induction of apoptosis in human PANC1 cells assessed as accumulation at sub-G0/G1 phase at 10 uM after 48 hrs by propidium iodide staining based flow cytometry (reference value: 0.2 to 2.9%); type: functional
[7] = system: PANC-1; assay: Induction of apoptosis in human PANC1 cells assessed as accumulation at sub-G0/G1 phase at 20 uM after 48 hrs by propidium iodide staining based flow cytometry (reference value: 0.2 to 2.9%); type: functional
[8] = system: PK9; assay: Induction of apoptosis in human PK9 cells at 5 to 40 uM after 24 to 72 hrs by Annexin V/7-AAD staining based flow cytometry; type: functional, cell-based
[9] = Induction of apoptosis in HPNE cells at 5 to 40 uM after 24 to 72 hrs by Annexin V/7-AAD staining based flow cytometry; type: cell-based; settings: human
[10] = system: PANC-1; assay: Growth inhibition of human PANC1 cells after 72 hrs by XTT assay; type: functional, cell-based; settings: PANC-1, 72 h
[11] = system: PANC-1; assay: Induction of apoptosis in human PANC1 cells assessed as accumulation at sub-G0/G1 phase at 20 uM after 72 hrs by propidium iodide staining based flow cytometry (reference value: 1.6 to 3.2%); type: functional
[12] = Induction of apoptosis in HPNE cells assessed as accumulation at sub-G0/G1 phase at 20 uM after 24 hrs by propidium iodide staining based flow cytometry (reference value: 0.6%); type: cell-based; settings: human
[13] = system: BXPC-3; assay: Induction of apoptosis in human BxPC3 cells assessed as accumulation at sub-G0/G1 phase at 20 uM after 24 hrs by propidium iodide staining based flow cytometry (reference value: 2.3%); type: functional
[14] = system: BXPC-3; assay: Induction of apoptosis in human BxPC3 cells assessed as accumulation at sub-G0/G1 phase at 20 uM after 48 hrs by propidium iodide staining based flow cytometry (reference value: 2.8%); type: functional
[15] = Induction of apoptosis in HPNE cells assessed as accumulation at sub-G0/G1 phase at 10 uM after 72 hrs by propidium iodide staining based flow cytometry (reference value: 6.6%); type: cell-based; settings: human
[16] = system: BXPC-3; assay: Induction of apoptosis in human BxPC3 cells assessed as accumulation at sub-G0/G1 phase at 10 uM after 48 hrs by propidium iodide staining based flow cytometry (reference value: 2.8%); type: functional
[17] = Induction of apoptosis in HPNE cells assessed as accumulation at sub-G0/G1 phase at 20 uM after 72 hrs by propidium iodide staining based flow cytometry (reference value: 6.6%); type: cell-based; settings: human
[18] = system: PK9; assay: Induction of apoptosis in human PK9 cells assessed as accumulation at sub-G0/G1 phase at 20 uM after 24 hrs by propidium iodide staining based flow cytometry (reference value: 2.2%); type: functional
[19] = system: PK9; assay: Induction of apoptosis in human PK9 cells assessed as accumulation at sub-G0/G1 phase at 10 uM after 48 hrs by propidium iodide staining based flow cytometry (reference value: 3.8%); type: functional
[20] = system: BXPC-3; assay: Induction of apoptosis in human BxPC3 cells assessed as accumulation at sub-G0/G1 phase harboring pSFFV-Bcl-XL at 20 uM after 72 hrs by propidium iodide staining based flow cytometry (reference value: 1.3%); type: functional
[21] = system: BXPC-3; assay: Induction of apoptosis in human BxPC3 cells assessed as accumulation at sub-G0/G1 phase at 20 uM after 72 hrs by propidium iodide staining based flow cytometry (reference value: 3.4%); type: functional
[22] = system: BXPC-3; assay: Induction of apoptosis in human BxPC3 cells assessed as accumulation at sub-G0/G1 phase at 10 uM after 72 hrs by propidium iodide staining based flow cytometry (reference value: 3.4%); type: functional
[23] = Induction of apoptosis in HPNE cells assessed as accumulation at sub-G0/G1 phase at 10 uM after 48 hrs by propidium iodide staining based flow cytometry (reference value: 0.7%); type: cell-based; settings: human
[24] = Induction of apoptosis in HPNE cells assessed as accumulation at sub-G0/G1 phase at 10 uM after 24 hrs by propidium iodide staining based flow cytometry (reference value: 0.6%); type: cell-based; settings: human
[25] = system: PK9; assay: Induction of apoptosis in human PK9 cells assessed as accumulation at sub-G0/G1 phase at 10 uM after 24 hrs by propidium iodide staining based flow cytometry (reference value: 2.2%); type: functional
[26] = system: BXPC-3; assay: Induction of apoptosis in human BxPC3 cells harboring pSFFV-Bcl-XL assessed as accumulation at sub-G0/G1 phase at 10 uM after 48 hrs by propidium iodide staining based flow cytometry (reference value: 1.9%); type: functional
[27] = system: PK9; assay: Induction of apoptosis in human PK9 cells assessed as accumulation at sub-G0/G1 phase at 20 uM after 72 hrs by propidium iodide staining based flow cytometry (reference value: 4%); type: functional
[28] = system: PK9; assay: Induction of apoptosis in human PK9 cells assessed as accumulation at sub-G0/G1 phase at 10 uM after 72 hrs by propidium iodide staining based flow cytometry (reference value: 4%); type: functional
[29] = system: SK-BR-3; assay: Growth inhibition of human SKBR3 cells after 72 hrs; type: functional, cell-based; settings: SK-BR-3, 72 h
[30] = system: BXPC-3; assay: Induction of apoptosis in human BxPC3 cells harboring pSFFV-Bcl-XL assessed as accumulation at sub-G0/G1 phase at 10 uM after 24 hrs by propidium iodide staining based flow cytometry (reference value: 1.5%); type: functional
[31] = Induction of apoptosis in HPNE cells assessed as accumulation at sub-G0/G1 phase at 20 uM after 48 hrs by propidium iodide staining based flow cytometry (reference value: 0.7%); type: cell-based; settings: human
[32] = system: BXPC-3; assay: Induction of apoptosis in human BxPC3 cells assessed as accumulation at sub-G0/G1 phase harboring pSFFV-Bcl-XL at 20 uM after 24 hrs by propidium iodide staining based flow cytometry (reference value: 1.2%); type: functional
[33] = system: MIA PaCa-2; assay: Growth inhibition of human MIAPaCa2 cells after 72 hrs by MTT assay; type: functional, cell-based; settings: MIA PaCa-2, 72 h
[34] = system: BXPC-3; assay: Induction of apoptosis in human BxPC3 cells harboring pSFFV-Bcl-XL assessed as accumulation at sub-G0/G1 phase at 10 uM after 72 hrs by propidium iodide staining based flow cytometry (reference value: 2%); type: functional
[35] = system: PK9; assay: Growth inhibition of human PK9 cells after 72 hrs by MTT assay; type: functional, cell-based; settings: PK9, 72 h
[36] = system: PK9; assay: Induction of apoptosis in human PK9 cells assessed as accumulation at sub-G0/G1 phase at 20 uM after 48 hrs by propidium iodide staining based flow cytometry (reference value: 3.8%); type: functional
[37] = system: BXPC-3; assay: Induction of apoptosis in human BxPC3 cells assessed as accumulation at sub-G0/G1 phase harboring pSFFV-Bcl-XL at 20 uM after 48 hrs by propidium iodide staining based flow cytometry (reference value: 1.3%); type: functional
[38] = system: BXPC-3; assay: Induction of apoptosis in human BxPC3 cells assessed as accumulation at sub-G0/G1 phase at 10 uM after 24 hrs by propidium iodide staining based flow cytometry (reference value: 1.8%); type: functional
[39] = system: Fibroblast; assay: Induction of apoptosis in human primary fibroblasts assessed as accumulation at sub-G0/G1 phase at 10 uM after 48 hrs by propidium iodide staining based flow cytometry (reference value: 6.1%); type: cell-based
[40] = system: Fibroblast; assay: Induction of apoptosis in human primary fibroblasts at 20 uM after 48 hrs by propidium iodide staining based flow cytometry (reference value: 6.1%); type: cell-based
[41] = system: Fibroblast; assay: Induction of apoptosis in human primary fibroblasts assessed as accumulation at sub-G0/G1 phase at 10 uM after 72 hrs by propidium iodide staining based flow cytometry (reference value: 6.7%); type: cell-based
[42] = system: Fibroblast; assay: Induction of apoptosis in human primary fibroblasts assessed as accumulation at sub-G0/G1 phase at 10 uM after 24 hrs by propidium iodide staining based flow cytometry (reference value: 4.8%); type: cell-based
[43] = system: HeLa; assay: Growth inhibition of human HeLa cells after 72 hrs; type: functional, cell-based
[44] = system: Fibroblast; assay: Induction of apoptosis in human primary fibroblasts at 20 uM after 24 hrs by propidium iodide staining based flow cytometry (reference value: 4.8%); type: cell-based
[45] = system: Fibroblast; assay: Induction of apoptosis in human primary fibroblasts at 20 uM after 72 hrs by propidium iodide staining based flow cytometry (reference value: 6.7%); type: cell-based

Structure (SMILES)	Activity [1]	Activity [2]	Activity [5]	Activity [6]	Activity [7]	Activity [11]	Activity [12]	Activity [13]	Activity [14]	Activity [15]	Activity [16]	Activity [17]	Activity [18]	Activity [19]	Activity [20]	Activity [21]	Activity [22]	Activity [23]	Activity [24]	Activity [25]	also measured
Cl.NCC(=O)N1CCC[C@H]1COCCCCCCCCC/C=C/c1ccc(-c2ccccc2)cc1	1.6%	35.8%	2%	16.6%	13.3%	30.5%															IC50 [3]: 7 µM; Activity [4]: Toxic; Activity [8]: Active; Activity [9]: Toxic; IC50 [10]: 6.3 µM
CCCCCC/C=C/CCCCCCCCOC[C@H]1NC[C@H](O)[C@@H]1O	7.9%	6.4%	5.7%	9.1%	23.4%	33.7%	46.9%	9.5%	19.6%	2.5%	7.3%	70.3%	2.2%	3.8%	3.8%	21.5%	7.8%	2%	3.4%	3.4%	IC50 [3]: > 100 µM; Activity [26]: 1.9%; Activity [27]: 5.7%; Activity [28]: 2.7%; IC50 [29]: 10 µM; Activity [30]: 4.3%; IC50 [10]: 80 µM; Activity [31]: 65.7%; Activity [32]: 4.9%; IC50 [33]: > 100 µM; Activity [34]: 3.8%; IC50 [35]: > 100 µM; Activity [36]: 4.3%; Activity [37]: 5%; Activity [38]: 5.3%
Cl.O[C@H]1CN[C@H](COCCCCCCCCC/C=C/c2ccc(-c3ccccc3)cc2)C1	17.6%	56.2%	8.8%	23.2%	38%	66.2%	83.1%	12.7%	59.3%	93.4%	34.6%	98.3%	35.1%	30.4%	49.7%	72%	59.3%	83.5%	80.6%	9.6%	Activity [39]: 11.7%; Activity [40]: 21.7%; Activity [26]: 10%; Activity [27]: 84.9%; Activity [28]: 39.4%; Activity [41]: 22.1%; Activity [30]: 2.6%; Activity [42]: 9.5%; IC50 [43]: 4 µM; Activity [44]: 17.2%; Activity [31]: 93.5%; Activity [45]: 33.7%; Activity [32]: 7.3%; Activity [34]: 15.7%; Activity [36]: 77.4%; Activity [37]: 11.4%; Activity [38]: 22.1%
CCCCCCCCCCCCCCCCOC[C@H]1NC[C@H](O)[C@@H]1O	4.4%	4.1%	3.1%	3.5%	4.8%	12.8%	53.9%	7.1%	16.9%	3.1%	5.7%	66.8%	2.6%	3.5%	7.6%	21.7%	7.5%	2.2%	2.6%	2%	Activity [26]: 4.2%; Activity [27]: 2.8%; Activity [28]: 2.6%; IC50 [29]: 50 µM; Activity [30]: 3.9%; Activity [31]: 62.1%; Activity [32]: 4.4%; Activity [34]: 5.8%; Activity [36]: 4.6%; Activity [37]: 4.8%; Activity [38]: 3.5%
CCCCCCCC/C=C\CCCCCCCCNC[C@H]1NC[C@H](O)[C@@H]1O																					IC50 [29]: 10 µM
CCCCCCCC/C=C\CCCCCCCCOC[C@@H]1CCCN1C(=O)CN.Cl	2.2%	52.9%	2.4%	13.7%	7.9%	50.3%															IC50 [3]: 5.3 µM; Activity [4]: Toxic; Activity [8]: Active; Activity [9]: Toxic; IC50 [10]: 7.7 µM
O[C@H]1[C@@H](O)CN[C@@H]1COCCCCCCCC/C=C/c1ccc(Oc2ccccc2)cc1	9.9%	4.4%	3.1%	3.8%	33.1%	29.3%	79.1%	8.7%	16.2%	7.9%	6.6%	85.8%	4.6%	4.4%	4.3%	20.3%	8.3%	6.8%	6.5%	3.4%	Activity [26]: 4.8%; Activity [27]: 6.2%; Activity [28]: 3.1%; IC50 [29]: 15 µM; Activity [30]: 3.6%; Activity [31]: 81.4%; Activity [32]: 4.4%; Activity [34]: 4.8%; Activity [36]: 5.2%; Activity [37]: 4.5%; Activity [38]: 3.9%
